Laboratory results from US9963475B2, “Anthracene-9, 10-dione dioxime compound prodrugs and their uses” (Beta Cat Pharmaceuticals, Inc., priority 2015, dated 2018).
Where a name gives a salt, the structure may show the parent alone. Read-outs that look alike come from different tables or passages of the source.

Legend:
[1] = Solubility assay in buffer (pH 1 and pH 6), LC-MS/MS; format: physicochemical
Protocol: (§1) A stock solution of the compound will be prepared in dimethylsulfoxide (DMSO) at 10 mM concentration. This stock solution will be serially diluted in DMSO to get stock solutions of 5, 2.5, 1.25, 0.625, 0.312, 0.156, and 0.078 mM. Working solutions of compound at a range of concentrations (100, 50, 25, 12.5, 6.25, 3.12, 1.56, and 0.78 μM) will be prepared in different buffers (pH 1 and 6).
(§2) In a 100 mL bottle, 33.5 mL of 0.2 M hydrochloric acid solution will be added to 12.5 mL of 0.2 M potassium chloride solution and diluted to […] with Milli-Q® water. The pH of the buffer solution will be adjusted to 1.0 with 0.2 M HCl solution and finally, volume will be made to 100 mL with Milli-Q® water.
(§3) In a 100 mL bottle, 6.15 mL of 0.2 M disodium hydrogen phosphate (dibasic) and 43.85 mL of 0.2 M sodium dihydrogen phosphate (monobasic) solution will be added. The pH of the buffer solution will be adjusted to 6.0 using the phosphate solutions. The volume will be made to 100 mL with Milli-Q® water.
The study will be performed in a 96-well deep well plate by spiking 10 μL stock solutions into 990 μL buffer. Spiked buffer samples will be maintained at room temperature for 2 h. Incubations will be performed in duplicates. The plate will be centrifuged at 4000 rpm for 20 min at room temperature to enable the insoluble particles/precipitates to settle down. The supernatant will be diluted 1:1 with acetonitrile and internal standard will be added. The samples will be analyzed using LC-MS/MS.
(§4) The samples will be analysed for BC3005 using a fit-for-purpose LC-MS/MS method. If the sample concentration is above upper limit of quantification, the samples will be diluted and read against the calibration curve.
(§5) The concentration in samples will be determined against the calibration curve by using the following equation: Y=mX+C

[2] = Stability assay in buffer (pH 1 and pH 6), LC-MS/MS; format: physicochemical
Protocol: as §1, §2, §3
The study will be performed in a 96-well deep well plate by spiking 10 μL of stock solutions into 990 μL buffer and 100 μL aliquots will be withdrawn at 0 and 120 min. The aliquots will be collected in centrifuge tubes containing 100 μL of acetonitrile. To the quenched samples, internal standard will be added and they will be taken for analysis using LC-MS/MS spectrometry. The experiments will be performed in duplicate in an orbital shaker maintained at 37° C. at 60 rpm.
as §4, §5

[3] = Pharmacokinetics of Compound 10 (prodrug) and estimation of Compound 1 (parent) following oral and intravenous administration; format: in vivo, Male Sprague Dawley Rats; settings: for Vd / AUC(0-inf) / AUC(0-t) / clearance / half-life / MRT last: male, Sprague Dawley; for Vd: rat, plasma, iv, 1.28 mg/kg; for AUC(0-inf) / AUC(0-t) / clearance / half-life / MRT last / AUCExtra / Co: rat plasma; for AUC(0-inf) / AUC(0-t) / clearance / half-life / MRT last / AUCExtra: IV 1.28 mg/kg sodium salt of compound 10; for MRT last: read-out: MRT0-last; for Co: IV 1.28 mg/kg sodium salt of compound 10, mean concentration data
Text: Pharmacokinetics of Compound 10 (Prodrug) and Estimation of Compound 1 (Parent) Following Oral and Intravenous Administration in Male Sprague Dawley Rats

[4] = Mouse PK study with Compound 24; settings: in vivo; for bioavailability: nominal doses and AUClast of IV (1 mg/kg) and PO (10 mg/kg) used
Text: Mouse PK Study with Compound 24 Summary of Pharmacokinetic Parameters of Compound 24 and Tegavivint: […]

[5] = aqueous buffer pH 1, simulated gastric fluid, kinetic from dmso stock, pH 1, room temperature
[6] = aqueous buffer pH 6, aqueous buffer, kinetic from dmso stock, pH 6, room temperature
[7] = IV 1.28 mg/kg sodium salt of compound 10, read-out: Vd
[8] = IV 1.28 mg/kg sodium salt of compound 10, read-out: Vdss
[9] = IV 1 mg/kg Compound 24, read-out: T½ (converted)
[10] = PO 10 mg/kg Compound 24, read-out: C0/Cmax

C[C@@H]1C[C@H](C)CN(S(=O)(=O)c2ccc3c(c2)C(=NO)c2cc(S(=O)(=O)N4C[C@H](C)C[C@H](C)C4)ccc2C3=NOP(=O)(O)O)C1 [Compound 4, ((((9E,10E)-3,6-bis(((3R,5S)-3,5-dimethylpiperidin-1-yl)sulfonyl)-10-(hydroxyimino)-anthracen-9(10H)-ylidene)amino)oxy)phosphonic acid]
solubility at 2 h [1, 5]: < 0.78 µM
solubility at 2 h [1, 6]: > 100 µM
% Compound remaining at 120 min ([2]; pH 1, 37° C.): 96%
% Compound remaining at 120 min ([2]; pH 6, 37° C.): 101%

C[C@@H]1C[C@H](C)CN(S(=O)(=O)c2ccc3c(c2)C(=NO)c2cc(S(=O)(=O)N4C[C@H](C)C[C@H](C)C4)ccc2C3=NOCOP(=O)(O)O)C1 [Compound 10, ((((9E,10E)-3,6-bis(((3S,5R)-3,5-dimethylpiperidin-1-yl)sulfonyl)-10-(hydroxyimino)anthracen-9(10H)-ylidene)amino)-oxy)methyl dihydrogen phosphate]
Vd [3, 7]: 3.31 L/kg
Vd [3, 8]: 0.39 L/kg
AUC(0-inf) [3]: 885 ng·h/mL
AUC(0-t) [3]: 869 ng·h/mL
clearance [3]: 24.1 mL/min/kg
half-life [3]: 1.59 h
MRT last [3]: 0.15 h
AUCExtra [3]: 1.81%
Co [3]: 11437.00 ng/mL
solubility at 2 h [1, 5]: < 0.78 µM
solubility at 2 h [1, 6]: < 0.78 µM
% Compound remaining at 120 min ([2]; pH 1, 37° C.): 101%
% Compound remaining at 120 min ([2]; pH 6, 37° C.): 79%

CC(C)C[C@H](N)C(=O)OCON=C1c2ccc(S(=O)(=O)N3C[C@H](C)C[C@H](C)C3)cc2C(=NO)c2cc(S(=O)(=O)N3C[C@H](C)C[C@H](C)C3)ccc21.Cl [Compound 41, ((((9E,10E)-3,6-bis(((3R,5S)-3,5-dimethylpiperidin-1-yl)sulfonyl)-10-(hydroxyimino)anthracen-9(10H)-ylidene)amino)oxy)methyl leucinate hydrochloride]
solubility at 2 h ([1]; pH 1, room temperature): <0.78 µM
solubility at 2 h ([1]; pH 6, room temperature): <0.78 µM
% Compound remaining at 120 min ([2]; pH 1, 37° C.): 98%
% Compound remaining at 120 min ([2]; pH 6, 37° C.): 76%

CCC(C)C(N)C(=O)OCON=C1c2ccc(S(=O)(=O)N3C[C@H](C)C[C@H](C)C3)cc2C(=NO)c2cc(S(=O)(=O)N3C[C@H](C)C[C@H](C)C3)ccc21 (stereo partly drawn) [Compound 24, ((((9E,10E)-3,6-bis(((3R,5S)-3,5-dimethylpiperidin-1-yl)sulfonyl)-10-(hydroxyimino)anthracen-9(10H)-ylidene)amino)oxy)methyl 2-amino-3-methylpentanoate dihydrochloride]
AUC(0-inf) ([4]; IV 1 mg/kg Compound 24): 379 ng·h/mL
AUC(0-t) ([4]; IV 1 mg/kg Compound 24): 376 ng·h/mL
MRT inf ([4]; IV 1 mg/kg Compound 24): 0.476 h
clearance ([4]; IV 1 mg/kg Compound 24): 43.9 mL/min/kg
Cmax ([4]; IV 1 mg/kg Compound 24, C0 back extrapolated concentration at time zero): 2370 ng/mL
half-life [4, 9]: 0.748 h
Vd ([4]; IV 1 mg/kg Compound 24, read-out: VSS): 1.25 L/kg
AUC(0-inf) ([4]; PO 10 mg/kg Compound 24): 78.2 ng·h/mL
AUC(0-t) ([4]; PO 10 mg/kg Compound 24): 60.5 ng·h/mL
MRT inf ([4]; PO 10 mg/kg Compound 24): 1.36 h
Tmax ([4]; PO 10 mg/kg Compound 24): 0.25 h
Cmax [4, 10]: 60.7 ng/mL
half-life ([4]; PO 10 mg/kg Compound 24, read-out: T½ (converted)): 0.873 h
bioavailability [4]: 2%
solubility at 2 h [1, 5]: > 100 µM
solubility at 2 h [1, 6]: < 0.78 µM
% Compound remaining at 120 min ([2]; pH 1, 37° C.): 101%
% Compound remaining at 120 min ([2]; pH 6, 37° C.): 93%

CCC(C)C(N)C(=O)OCON=C1c2cc(S(=O)(=O)N3C[C@H](C)C[C@H](C)C3)ccc2C(=NO)c2ccc(S(=O)(=O)N3C[C@H](C)C[C@H](C)C3)cc21 (stereo partly drawn) [Compound 38, ((((9E,10E)-2,7-bis(((3S,5R)-3,5-dimethylpiperidin-1-yl)sulfonyl)-10-(hydroxyimino)anthracen-9(10H)-ylidene)amino)oxy)methyl 2-amino-3-methylpentanoate]
solubility at 2 h [1, 5]: < 0.78 µM
solubility at 2 h [1, 6]: < 0.78 µM
% Compound remaining at 120 min ([2]; pH 1, 37° C.): 85%
% Compound remaining at 120 min ([2]; pH 6, 37° C.): 96%

C[C@@H]1C[C@H](C)CN(S(=O)(=O)c2ccc3c(c2)C(=NO)c2cc(S(=O)(=O)N4C[C@H](C)C[C@H](C)C4)ccc2C3=NO)C1 [Compound 1, (9E,10E)-2,7-bis(((3R,5S)-3,5-dimethylpiperidin-1-yl)sulfonyl)anthracene-9,10-dione dioxime, reference compound]
Vd [3, 7]: 16.9 L/kg
Vd [3, 8]: 15 L/kg
AUC(0-inf) [3]: 446 ng·h/mL
AUC(0-t) [3]: 396 ng·h/mL
clearance [3]: 48.3 mL/min/kg
half-life [3]: 4 h
MRT last [3]: 3.56 h
AUCExtra [3]: 11.19%
Co [3]: 116.31 ng/mL
AUC(0-inf) ([4]; IV 1 mg/kg Compound 24): 873 ng·h/mL
AUC(0-t) ([4]; IV 1 mg/kg Compound 24): 752 ng·h/mL
MRT inf ([4]; IV 1 mg/kg Compound 24): 10.5 h
half-life [4, 9]: 9.39 h
AUC(0-t) ([4]; PO 10 mg/kg Compound 24): 229 ng·h/mL
Tmax ([4]; PO 10 mg/kg Compound 24): 1 h
Cmax [4, 10]: 52.5 ng/mL
bioavailability [4]: 3%

CC(C)[C@H](N)C(=O)OCON=C1c2cc(S(=O)(=O)N3C[C@H](C)C[C@H](C)C3)ccc2C(=NO)c2ccc(S(=O)(=O)N3C[C@H](C)C[C@H](C)C3)cc21.Cl [Compound 43, ((((9E,10E)-2,7-bis(((3R,5S)-3,5-dimethylpiperidin-1-yl)sulfonyl)-10-(hydroxyimino)anthracen-9(10H)-ylidene)amino)-oxy)methylvalinate hydrochloride]
solubility at 2 h ([1]; pH 1, room temperature): <0.78 µM
solubility at 2 h ([1]; pH 6, room temperature): <0.78 µM
% Compound remaining at 120 min ([2]; pH 1, 37° C.): 90%
% Compound remaining at 120 min ([2]; pH 6, 37° C.): 128%

C[C@@H]1C[C@H](C)CN(S(=O)(=O)c2ccc3c(c2)C(=NOCOC(=O)C(N)C(C)(C)C)c2cc(S(=O)(=O)N4C[C@H](C)C[C@H](C)C4)ccc2C3=NO)C1 (stereo partly drawn) [Compound 46, ((((9E,10E)-2,7-bis(((3R,5S)-3,5-dimethyl-piperidin-1-yl)sulfonyl)-10-(hydroxyimino)anthracen-9(10H)-ylidene)amino)oxy)methyl-2-amino-3,3-dimethylbutanoate]
solubility at 2 h ([1]; pH 1, room temperature): <0.78 µM
solubility at 2 h ([1]; pH 6, room temperature): <0.78 µM
% Compound remaining at 120 min ([2]; pH 1, 37° C.): 93%
% Compound remaining at 120 min ([2]; pH 6, 37° C.): 97%
